These results are taken from US20230338297A1, “Encapsulated Agents that Bind to MCT-1” (THE JOHNS HOPKINS UNIVERSITY, priority 2020, published 2023).

The target of one data set is T1, MCT-1 (Homo sapiens, UniProt P53985).
T1 construct: endogenous in cells
T1 sequence (P53985 1-500): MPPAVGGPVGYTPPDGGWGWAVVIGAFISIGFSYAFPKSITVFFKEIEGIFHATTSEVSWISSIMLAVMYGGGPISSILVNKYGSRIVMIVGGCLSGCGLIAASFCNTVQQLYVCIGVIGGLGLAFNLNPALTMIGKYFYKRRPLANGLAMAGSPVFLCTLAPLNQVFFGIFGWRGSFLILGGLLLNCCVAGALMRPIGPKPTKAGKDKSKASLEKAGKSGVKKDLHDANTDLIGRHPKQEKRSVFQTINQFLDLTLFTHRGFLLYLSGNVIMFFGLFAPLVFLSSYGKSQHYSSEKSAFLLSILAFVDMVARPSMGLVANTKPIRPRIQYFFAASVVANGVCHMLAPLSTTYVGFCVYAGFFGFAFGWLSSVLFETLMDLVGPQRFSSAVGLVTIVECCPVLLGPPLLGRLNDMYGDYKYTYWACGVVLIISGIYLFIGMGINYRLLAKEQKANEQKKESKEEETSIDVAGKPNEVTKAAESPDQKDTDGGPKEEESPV
T1 sequence (P35613 140-385 partner limits assumed): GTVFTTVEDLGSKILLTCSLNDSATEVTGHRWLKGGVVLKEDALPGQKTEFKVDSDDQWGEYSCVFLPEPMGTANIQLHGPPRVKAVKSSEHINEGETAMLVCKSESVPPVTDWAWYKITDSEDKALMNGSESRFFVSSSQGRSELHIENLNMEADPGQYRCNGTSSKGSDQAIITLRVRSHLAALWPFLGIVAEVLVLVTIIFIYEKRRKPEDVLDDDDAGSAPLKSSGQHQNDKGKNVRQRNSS
In kind it is cell-based. The text has this:
To gain insight into this lack of sensitivity, the expression levels of three cell surface channels, GLUT-1 (Yu, M. et al. The prognostic value of GLUT1 in cancers: a systematic review and meta-analysis. Oncotarget 8, 43356-43367, doi:10.18632/oncotarget.17445 (2017)), MCT-1 and MCT-4 (Hong, C. S. et al. MCT1 Modulates Cancer Cell Pyruvate Export and Growth of Tumors that Co-express MCT1 and MCT4. Cell Reports 14, 1590-1601, doi:10.1016/j.celrep.2016.01.057 (2016)) were compared in all 7 pancreatic cancer cell lines using RNA expression atlas (FIG. 4A). While neither GLUT1 (primarily responsible for glucose uptake and therefore, the FDG-PET positive phenotype) nor MCT-4 expression levels of CFPAC-1 were lower than other cell lines in the panel, expression levels of MCT-1 in CFPAC-1 (22 TPM) was nearly three-fold lower than the next lowest expressor (BxPC-3, 64 TPM) in the cell line panel (FIG. 4B). […]

Another data set relates to DLD-1 parental cells. The data set is described as follows: effect of MCT-1 loss on sensitivity: DLD-1 parental cells. The format is cell-based, human. The following applies: 0-200 uM. The procedure: (§1) The Alt-R CRISPR system (Integrated DNA Technologies, IDT) was used to delete SLC16A1, the gene encoding for the MCT-1 protein, in the DLD-1 and MiaPaCa-2 cell lines. The gRNA sequence was designed using CHOPCHOP v.3 12. Briefly, Alt-R CRISPR Cas9 crRNAs ([…], IDT; SEQ ID NO:1) and Alt-R CRISPR-Cas9 tracrRNA (1072532, IDT) were re-suspended at 100 μM with Nuclease-Free Duplex Buffer (IDT). The crRNAs and tracrRNA were mixed at a 1:1 molar ratio and denatured for 5 min at 95° C., followed by slow cooling to room temperature to duplex prior to mixing with Cas9 Nuclease (1081059, IDT) at a 1.2:1 molar ratio for 15 min. Forty pmoles of the Cas9 ribonucleoprotein (RNP) containing tracrRNA/MCT-1 crRNA duplex were mixed with 2×10^5 DLD-1 cells in 20 μL of OptiMEM (31985088, ThermoFisher Scientific). This mixture was loaded into a 0.1 cm cuvette (1652089, Bio Rad) and electroporated at 120 V for 16 ms using an ECM 2001 (Harvard Apparatus). Cells were immediately transferred to complete growth medium and cultured for one week. Upon reaching confluence, polyclonal pools were plated at a density of 0.5 to 2 cells per well in 96-well plates and cultured for 3 weeks. Single colonies were transferred into 2 replica 96-well plates. […]

Another data set has as its system DLD-1 MCT-1(-) cells. The data set can be described thus: effect of MCT-1 loss on sensitivity: DLD-1 MCT-1(-) knock-out cells. The format is cell-based, human. Conditions: even at 200 uM. The procedure:
as §1

For a further data set, the system named is MiaPaCa-2 cells. The data set can be described thus: rapid induction of cell death, timed exposure and washout of MiaPaCa-2 cells. The format is cell-based, human. The procedure: Representative pancreatic cancer cells MiaPaCa-2 (MCT-1: 163 TPM, Expression Atlas) were plated in a 96 well plate at 12,000 cells/well. These cells were then exposed to a 2-fold dilution series of sCD-3BP and free 3BP for different amounts of time (exposure time: 15 minutes, 30 minutes, 1 hour, 2 hours, 4 hours and 8 hours) and their outcome recorded by Incucyte® Live-Cell Analysis Systems, over 36 hours. After the desired timed exposure, cells were washed with PBS and fresh media was added to ensure no more drug persisted in the respective wells. […] The IC50 of both agents was calculated to be 84-90 uM when cells were exposed to the drug for only 15 minutes. […] While treated cells looked initially healthy following drug washout, cell death became discernable 24 hours post exposure.

A short description of data set [1]: stability of CD-3BP complexes and free 3BP in sera, residual 3BP by cell toxicity assay (HCT-116). In kind it is in vitro ADME, human. The following applies: incubated with sera at 37° C. for up to 8 hours. The text has this:
However, how microencapsulation in CD alters the solubility and stability of 3BP and whether chemical modifications of CDs can alter physicochemical characteristics of the drug remains unclear. To address these questions and clarify the biological effect of microencapsulation, an assay was designed to estimate the stability of various CD-3BP complexes when compared to free 3BP in human sera.
Two different types of complexes, the previously used sCD-3BP (Chapiro, J. et al., Clinical cancer research: An official journal of the American Association for Cancer Research 20, 6406-6417, doi:10.1158/1078-0432.ccr-14-1271 (2014)) and newly generated HPCD-3BP were compared side-by-side. […] Aliquots were collected at various time points and assessed for residual 3BP by a cell toxicity assay. […]
Free 3BP, sCD-3BP and HPCD-3BP were incubated at various concentrations (12.5 μM, 25 μM, 50 μM, 100 μM and 200 μM) with 90 μL of mouse sera at 37° C. for up to 8 hours. […] Un-degraded biologically active 3BP at each time was then assessed by a cell toxicity assay. […] Cell death was measured by imaging cells after 72 hours using the IncuCyte® Live Cell-Analysis System (Essen Bioscience) and using the CellTox™ Green Cytotoxicity Assay (Promega), following the manufacturer's recommendation. […]

With `Cc1[nH]nc(C(F)(F)F)c1Cc1sc2c(c1C(=O)N1C[C@](C)(O)CO1)c(=O)n(C)c(=O)n2C(C)C` [AZD3965], the “rescue of cells from CD-3BP mediated cytotoxicity” value on MCT-1 is “clear dose dependent rescue”.
On to `O=C(O)C(=O)CBr` [3BP, 3-bromopyruvate], for which the cell death result in the data set with DLD-1 parental cells was “dramatic cell death”. The loss of viability entry in the data set with DLD-1 MCT-1(-) cells is reported as “no loss of viability”. For the same molecule, the “potency at killing MiaPaCa-2 cells, sCD-3BP compared with 3BP” value in the data set with MiaPaCa-2 cells is on record as “equally potent”. The entries for the “stability / protection against degradation in sera” value in data set [1] (listed as Free 3BP) and in data set [1] (listed as free 3BP) were “rapidly degraded” and “rapid degradation”, respectively.
